{"source": "patent US20260250290A1", "about": "(BRISTOL-MYERS SQUIBB COMPANY, priority 2023, published 2026)", "data": [{"target": "T1, full length SGK1 (Homo sapiens, UniProt O00141)", "T1 construct": "125 μM full length SGK1 (Life Technologies Part #PR7358A); purchased Life Technologies PR7358A", "T1 sequence (O00141 1-431)": "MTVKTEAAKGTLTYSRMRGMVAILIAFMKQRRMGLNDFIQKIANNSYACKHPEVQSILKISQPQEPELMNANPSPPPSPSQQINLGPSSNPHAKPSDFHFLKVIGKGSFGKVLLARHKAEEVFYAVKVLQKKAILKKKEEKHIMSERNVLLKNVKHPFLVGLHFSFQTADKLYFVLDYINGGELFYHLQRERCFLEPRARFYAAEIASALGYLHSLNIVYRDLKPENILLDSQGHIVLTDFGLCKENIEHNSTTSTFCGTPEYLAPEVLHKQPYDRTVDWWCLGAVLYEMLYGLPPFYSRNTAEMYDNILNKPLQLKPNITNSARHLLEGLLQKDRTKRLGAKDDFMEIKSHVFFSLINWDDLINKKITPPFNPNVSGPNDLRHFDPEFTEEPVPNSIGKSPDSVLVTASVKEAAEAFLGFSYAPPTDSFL", "test": "SGK1 inhibition Assay A (Caliper LabChip electrophoretic separation of fluorescent peptide substrate and phosphorylated product)", "assay_type": "biochemical", "details": "Assay A; 20 μM ATP, 40 min incubation; read-out: SGK1 IC50", "units": {"IC50": "nM"}, "values": [{"smiles": "COC(=O)N1CC=C(c2cc(N3CCC[C@@H](NC(=O)c4cc5cc(F)ccc5[nH]4)C3)c3c(N)ncnn23)C1", "note": "[Example 499, methyl (R)-3-(4-amino-5-(3-(5-fluoro-1H-indole-2-carboxamido)piperidin-1-yl)pyrrolo[2,1-f][1,2,4]triazin-7-yl)-2,5-dihydro-1H-pyrrole-1-carboxylate]", "IC50": 121}, {"smiles": "COC(=O)N1CC=C(c2cc(N3CCC[C@@H](NC(=O)c4cc5ccc(C(F)(F)F)cc5[nH]4)C3)c3c(N)ncnn23)C1", "note": "[Example 500, methyl (R)-3-(4-amino-5-(3-(6-(trifluoromethyl)-1H-indole-2-carboxamido)piperidin-1-yl)pyrrolo[2,1-f][1,2,4]triazin-7-yl)-2,5-dihydro-1H-pyrrole-1-carboxylate]", "IC50": 188}, {"smiles": "CC(=O)N1CC=C(c2cc(N3CCC[C@@H](NC(=O)c4cc(-c5cncnc5)n[nH]4)C3)c3c(N)ncnn23)C1", "note": "[Example 501, (R)-N-(1-(7-(1-acetyl-2,5-dihydro-1H-pyrrol-3-yl)-4-aminopyrrolo[2,1-f][1,2,4]triazin-5-yl)piperidin-3-yl)-3-(pyrimidin-5-yl)-1H-pyrazole-5-carboxamide]", "IC50": 292}, {"smiles": "N#Cc1ncc(-c2cc(N3CCC[C@@H](NC(=O)c4ccc(C(F)F)s4)C3)c3c(N)ncnn23)cn1", "note": "[Example 502, (R)-N-(1-(4-amino-7-(2-cyanopyrimidin-5-yl)pyrrolo[2,1-f][1,2,4]triazin-5-yl)piperidin-3-yl)-5-(difluoromethyl)thiophene-2-carboxamide]", "IC50": 39}, {"smiles": "Nc1ncnn2c(-c3ccc(=O)n(CC(F)F)c3)cc(N3CCC[C@@H](NC(=O)c4cc5ccccc5[nH]4)C3)c12", "note": "[Example 503, (R)-N-(1-(4-amino-7-(1-(2,2-difluoroethyl)-6-oxo-1,6-dihydropyridin-3-yl)pyrrolo[2,1-f][1,2,4]triazin-5-yl)piperidin-3-yl)-1H-indole-2-carboxamide]", "IC50": 9}, {"smiles": "Nc1ncnn2c(-c3ccc(=O)n(CC(F)F)c3)cc(N3CCC[C@@H](NC(=O)c4cc(-c5ccccc5)n[nH]4)C3)c12", "note": "[Example 504, (R)-N-(1-(4-amino-7-(1-(2,2-difluoroethyl)-6-oxo-1,6-dihydropyridin-3-yl)pyrrolo[2,1-f][1,2,4]triazin-5-yl)piperidin-3-yl)-3-phenyl-1H-pyrazole-5-carboxamide]", "IC50": 2}, {"smiles": "N#Cc1cc(-c2cc(N3CCC[C@@H](NC(=O)c4ccc(C(F)F)s4)C3)c3c(N)ncnn23)ccn1", "note": "[Example 505, (R)-N-(1-(4-amino-7-(2-cyanopyridin-4-yl)pyrrolo[2,1-f][1,2,4]triazin-5-yl)piperidin-3-yl)-5-(difluoromethyl)thiophene-2-carboxamide]", "IC50": 6}, {"smiles": "CN(C)CCn1c(C(=O)N[C@@H]2CCCN(c3cc(-c4ccc(C#N)nc4)n4ncnc(N)c34)C2)cc2ccccc21", "note": "[Example 506, (R)-N-(1-(4-amino-7-(6-cyanopyridin-3-yl)pyrrolo[2,1-f][1,2,4]triazin-5-yl)piperidin-3-yl)-1-(2-(dimethylamino)ethyl)-1H-indole-2-carboxamide]", "IC50": 886}, {"smiles": "CC(C)Cn1cc(-c2cc(N3CCC[C@@H](NC(=O)c4cc5ccccc5[nH]4)C3)c3c(N)ncnn23)ccc1=O", "note": "[Example 507, (R)-N-(1-(4-amino-7-(1-isobutyl-6-ox0-1,6-dihydropyridin-3-yl)pyrrolo[2,1-f][1,2,4]triazin-5-yl)piperidin-3-yl)-1H-indole-2-carboxamide]", "IC50": 82}, {"smiles": "Nc1ncnn2c(-c3cncnc3)cc(N3CCC[C@@H](NC(=O)c4cc5ccccc5[nH]4)C3)c12", "note": "[Example 508, (R)-N-(1-(4-amino-7-(pyrimidin-5-yl)pyrrolo[2,1-f][1,2,4]triazin-5-yl)piperidin-3-yl)-1H-indole-2-carboxamide]", "IC50": 195}, {"smiles": "N#Cc1ccc(-c2cc(N3CCC[C@@H](NC(=O)c4cc5ccccc5[nH]4)C3)c3c(N)ncnn23)cn1", "note": "[Example 509, (R)-N-(1-(4-amino-7-(6-cyanopyridin-3-yl)pyrrolo[2,1-f][1,2,4]triazin-5-yl)piperidin-3-yl)-1H-indole-2-carboxamide]", "IC50": 21}, {"smiles": "CC(C)Cn1cc(-c2cc(N3CCC[C@@H](NC(=O)c4ccc(C(F)F)s4)C3)c3c(N)ncnn23)ccc1=O", "note": "[Example 510, (R)-N-(1-(4-amino-7-(1-isobutyl-6-oxo-1,6-dihydropyridin-3-yl)pyrrolo[2,1-f][1,2,4]triazin-5-yl)piperidin-3-yl)-5-(difluoromethyl)thiophene-2-carboxamide]", "IC50": 44}, {"smiles": "Cc1nc(C)c(C(=O)N[C@@H]2CCCN(c3cc(-c4cncnc4)n4ncnc(N)c34)C2)s1", "note": "[Example 511, (R)-N-(1-(4-amino-7-(pyrimidin-5-yl)pyrrolo[2,1-f][1,2,4]triazin-5-yl)piperidin-3-yl)-2,4-dimethylthiazole-5-carboxamide]", "IC50": 450}, {"smiles": "Cc1nc(C)c(C(=O)N[C@@H]2CCCN(c3cc(-c4ccc(C#N)nc4)n4ncnc(N)c34)C2)s1", "note": "[Example 512, (R)-N-(1-(4-amino-7-(6-cyanopyridin-3-yl)pyrrolo[2,1-f][1,2,4]triazin-5-yl)piperidin-3-yl)-2.4-dimethylthiazole-5-carboxamide]", "IC50": 66}, {"smiles": "Cc1nc(C)c(C(=O)N[C@@H]2CCCN(c3cc(-c4ccnc(C#N)c4)n4ncnc(N)c34)C2)s1", "note": "[Example 513, (R)-N-(1-(4-amino-7-(2-cyanopyridin-4-yl)pyrrolo[2,1-f][1,2,4]triazin-5-yl)piperidin-3-yl)-2.4-dimethylthiazole-5-carboxamide]", "IC50": 32}, {"smiles": "Cc1nc(C)c(C(=O)N[C@@H]2CCCN(c3cc(-c4ccc(=O)n(CC(C)C)c4)n4ncnc(N)c34)C2)s1", "note": "[Example 514, (R)-N-(1-(4-amino-7-(1-isobutyl-6-oxo-1,6-dihydropyridin-3-yl)pyrrolo[2,1-f][1,2,4]triazin-5-yl)piperidin-3-yl)-2,4-dimethylthiazole-5-carboxamide]", "IC50": 131}, {"smiles": "N#Cc1ccc(-c2cc(N3CCC[C@@H](NC(=O)c4cc5cc(F)ccc5[nH]4)C3)c3c(N)ncnn23)cn1", "note": "[Example 515, (R)-N-(1-(4-amino-7-(6-cyanopyridin-3-yl)pyrrolo[2,1-f][1,2,4]triazin-5-yl)piperidin-3-yl)-5-fluoro-1H-indole-2-carboxamide]", "IC50": 130}, {"smiles": "Nc1ncnn2c(-c3cncnc3)cc(N3CCC[C@@H](NC(=O)c4cc5cc(F)ccc5[nH]4)C3)c12", "note": "[Example 516, (R)-N-(1-(4-amino-7-(pyrimidin-5-yl)pyrrolo[2,1-f][1,2,4]triazin-5-yl)piperidin-3-yl)-5-fluoro-1H-indole-2-carboxamide]", "IC50": 164}, {"smiles": "CC(=O)N1CC=C(c2cc(N3CCC[C@@H](NC(=O)c4cc5cc(F)ccc5[nH]4)C3)c3c(N)ncnn23)C1", "note": "[Example 517, (R)-N-(1-(7-(1-acetyl-2,5-dihydro-1H-pyrrol-3-yl)-4-aminopyrrolo[2,1-f][1,2,4]triazin-5-yl)piperidin-3-yl)-5-fluoro-1H-indole-2-carboxamide]", "IC50": 28}, {"smiles": "COC(=O)N1CC=C(c2cc(N3CCC[C@@H](NC(=O)c4cc5cc(F)ccc5[nH]4)C3)c3c(N)ncnn23)C1", "note": "[Example 518, Methyl (R)-3-(4-amino-5-(3-(5-fluoro-1H-indole-2-carboxamido)piperidin-1-yl)pyrrolo[2,1-f][1,2,4]triazin-7-yl)-2,5-dihydro-1H-pyrrole-1-carboxylate]", "IC50": 138}, {"smiles": "Cc1cc(-c2cc(N3CCC[C@@H](NC(=O)c4ccc(C(F)F)s4)C3)c3c(N)ncnn23)cnc1C#N", "note": "[Example 522]", "IC50": 17}, {"smiles": "N#Cc1ncc(-c2cc(N3CCC[C@@H](NC(=O)c4ccc(C(F)F)s4)C3)c3c(N)ncnn23)cc1F", "note": "[Example 523, (R)-N-(1-(4-amino-7-(6-cyano-5-fluoropyridin-3-yl)pyrrolo[2,1-f][1,2,4]triazin-5-yl)piperidin-3-yl)-5-(difluoromethyl)thiophene-2-carboxamide]", "IC50": 118}, {"smiles": "N#Cc1ncc(-c2cc(N3CCC[C@@H](NC(=O)c4ccc(C(F)F)s4)C3)c3c(N)ncnn23)cc1C(F)(F)F", "note": "[Example 524, (R)-N-(1-(4-amino-7-(6-cyano-5-(trifluoromethyl)pyridin-3-yl)pyrrolo[2,1-f][1,2,4]triazin-5-yl)piperidin-3-yl)-5-(difluoromethyl)thiophene-2-carboxamide]", "IC50": 362}, {"smiles": "NC(=O)c1ncc(-c2cc(N3CCC[C@@H](NC(=O)c4ccc(C(F)F)s4)C3)c3c(N)ncnn23)cc1C(F)(F)F", "note": "[Example 525]", "IC50": 26}, {"smiles": "Nc1ncnn2c(-c3ccc(=O)[nH]c3)cc(N3CCC[C@@H](NC(=O)c4ccc(C(F)F)s4)C3)c12", "note": "[Example 526, (R)-N-(1-(4-amino-7-(6-oxo-1,6-dihydropyridin-3-yl)pyrrolo[2,1-f][1,2,4]triazin-5-yl)piperidin-3-yl)-5-(difluoromethyl)thiophene-2-carboxamide]", "IC50": 190}, {"smiles": "Nc1ncnn2c(-c3ccc(=O)n(C(F)F)c3)cc(N3CCC[C@@H](NC(=O)c4ccc(C(F)F)s4)C3)c12", "note": "[Example 527, (R)-N-(1-(4-amino-7-(1-(difluoromethyl)-6-oxo-1,6-dihydropyridin-3-yl)pyrrolo[2,1-f][1,2,4]triazin-5-yl)piperidin-3-yl)-5-(difluoromethyl)thiophene-2-carboxamide]", "IC50": 148}, {"smiles": "Nc1ncnn2c(-c3ccc(OC(F)F)nc3)cc(N3CCC[C@@H](NC(=O)c4ccc(C(F)F)s4)C3)c12", "note": "[Example 528, (R)-N-(1-(4-amino-7-(6-(difluoromethoxy)pyridin-3-yl)pyrrolo[2,1-f][1,2,4]triazin-5-yl)piperidin-3-yl)-5-(difluoromethyl)thiophene-2-carboxamide]", "IC50": 139}]}]}
